Reference: EP1022029A1, “NOOTROPIC AGENT” (priority 1997, dated 1999)

Tests used:
[1] = biological target: T1, AMPA (GluR1, 2, 3) receptor (Rattus norvegicus, UniProt P19490+P19491+P19492); experiment: Kainate-evoked currents in GluR1, 2, 3 receptors expressed in Xenopus oocytes; assay type: cell-based; details: nefiracetam 1 µM; kainate 100 µM; holding voltage -30 mV; n=5
T1 construct: expressed in transfected cells; host or cells: Xenopus oocytes injected with mRNA
Method: GluR 1, 2, 3 receptors which are AMPA receptors were expressed in Xenopus oocytes. Cell membrane currents evoked with kainate (100 µM) were recorded before and after administration of nefiracetam (1 µM) (n=5). […] The holding voltage was -30 mV. • (B): An oocyte expressing normal ACh receptors was loaded with Calcium Green. In Ca^2+-free (extCa^2+(-)) extracellular solution (extCa^2+(-)) and ordinary (i.e., Ca^2+-containing) extracellular solution, intracellular Ca^2+ ([Ca^2+]i) and Ach-evoked currents (IA) were recorded. The Ca^2+ rise was normalized by dividing "Δ increase of fluorescence intensity (DI)" by "base intensity (I)", and further by "current amplitude obtained with Ca^2+-free solution (2) (µA)". Indicated by "(1)" are currents obtained with Ca^2+-containing solution.
GluR1, 2, 3 receptors were expressed in Xenopus oocytes. Cell membrane currents evoked by kainate (100 µM) were recorded (n = 5) before and after treatment with nefiracetam (1 µM). The holding voltage was fixed at -30 mV.

[2] = biological target: T2, normal ACh receptors (Tetronarce californica, UniProt P02710+P02712+P02714+P02718); experiment: Calcium permeability of normal ACh receptors in oocytes loaded with Calcium Green; assay type: cell-based; details: normal solution + nefiracetam (1μM); ACh 100 µM; mean ± SD, n=7
T2 construct: expressed in transfected cells; host or cells: Xenopus oocytes
T2 sequence (P02710 25-461): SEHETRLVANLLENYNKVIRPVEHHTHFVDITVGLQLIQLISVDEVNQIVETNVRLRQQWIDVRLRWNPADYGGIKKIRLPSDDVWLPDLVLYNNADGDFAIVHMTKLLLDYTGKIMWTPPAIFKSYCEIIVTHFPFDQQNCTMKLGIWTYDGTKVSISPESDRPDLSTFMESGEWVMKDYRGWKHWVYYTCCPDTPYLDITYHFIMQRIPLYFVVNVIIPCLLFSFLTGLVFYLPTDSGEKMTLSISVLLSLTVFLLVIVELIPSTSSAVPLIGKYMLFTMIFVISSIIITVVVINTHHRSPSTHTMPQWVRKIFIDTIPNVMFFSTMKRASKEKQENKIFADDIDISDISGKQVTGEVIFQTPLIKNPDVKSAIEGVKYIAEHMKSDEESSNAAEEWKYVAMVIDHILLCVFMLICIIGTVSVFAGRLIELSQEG
T2 sequence (P02712 25-493): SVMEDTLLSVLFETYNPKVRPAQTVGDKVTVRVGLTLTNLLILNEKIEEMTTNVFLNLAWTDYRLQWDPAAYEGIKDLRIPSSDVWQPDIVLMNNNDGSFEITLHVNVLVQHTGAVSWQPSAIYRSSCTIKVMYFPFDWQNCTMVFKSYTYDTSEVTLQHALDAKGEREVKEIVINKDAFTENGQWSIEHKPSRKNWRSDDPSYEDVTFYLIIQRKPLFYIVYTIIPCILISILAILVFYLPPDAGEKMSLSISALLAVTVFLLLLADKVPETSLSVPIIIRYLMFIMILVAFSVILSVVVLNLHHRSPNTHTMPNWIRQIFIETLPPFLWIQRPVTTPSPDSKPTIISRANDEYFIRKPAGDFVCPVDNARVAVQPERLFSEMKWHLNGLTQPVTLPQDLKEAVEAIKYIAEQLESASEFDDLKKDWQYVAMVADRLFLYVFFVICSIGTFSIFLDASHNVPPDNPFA
T2 sequence (P02714 18-506): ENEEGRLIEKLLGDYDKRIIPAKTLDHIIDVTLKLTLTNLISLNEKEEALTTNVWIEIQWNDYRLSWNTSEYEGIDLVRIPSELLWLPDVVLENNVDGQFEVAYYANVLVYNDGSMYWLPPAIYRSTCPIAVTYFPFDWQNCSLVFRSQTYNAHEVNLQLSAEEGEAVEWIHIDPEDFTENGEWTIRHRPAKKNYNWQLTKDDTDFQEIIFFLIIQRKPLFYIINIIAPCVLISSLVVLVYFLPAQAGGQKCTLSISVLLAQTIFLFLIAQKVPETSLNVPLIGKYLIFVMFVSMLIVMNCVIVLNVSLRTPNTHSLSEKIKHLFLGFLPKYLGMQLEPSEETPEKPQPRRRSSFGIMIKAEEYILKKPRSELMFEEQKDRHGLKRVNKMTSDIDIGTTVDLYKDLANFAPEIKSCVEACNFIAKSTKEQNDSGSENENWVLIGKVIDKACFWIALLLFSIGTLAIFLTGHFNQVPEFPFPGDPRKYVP
T2 sequence (P02718 22-522): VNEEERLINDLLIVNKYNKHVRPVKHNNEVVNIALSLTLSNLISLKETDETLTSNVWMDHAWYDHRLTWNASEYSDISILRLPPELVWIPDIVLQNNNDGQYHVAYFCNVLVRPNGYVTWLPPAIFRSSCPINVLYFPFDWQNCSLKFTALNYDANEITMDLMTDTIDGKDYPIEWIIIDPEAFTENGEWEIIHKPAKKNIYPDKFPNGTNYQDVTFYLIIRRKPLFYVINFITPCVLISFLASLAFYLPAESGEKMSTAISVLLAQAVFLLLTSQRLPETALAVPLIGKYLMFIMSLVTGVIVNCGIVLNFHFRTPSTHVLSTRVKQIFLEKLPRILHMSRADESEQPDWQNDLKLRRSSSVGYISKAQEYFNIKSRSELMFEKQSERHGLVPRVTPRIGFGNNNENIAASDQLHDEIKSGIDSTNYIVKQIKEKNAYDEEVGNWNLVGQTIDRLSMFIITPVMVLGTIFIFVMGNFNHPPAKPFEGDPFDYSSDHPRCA
Method: An oocyte expressing normal ACh receptors was loaded with Calcium Green. Intracellular calcium ([Ca^2+]i) and evoked currents (IA) were recorded for each of the cases in which administration of ACh (100 µM) was carried out in a Ca^2+-free (extCa^2+(-)) extracellular solution or in an ordinary extracellular solution (Calcium Green TM-1 (Molecular Probes, Inc. USA) was injected to the oocytes). The Ca^2+ rise was normalized by Δ increase (δI) of intensity/base intensity/current amplitude (µA) obtained with calcium-free media.
In Table 15, each value represents the average from seven oocytes (SD; standard deviation). ACh-evoked currents in the Xenopus oocytes expression system are composed of acetylcholine-gated channel currents and calcium-dependent chloride currents. Nefiracetam had no effect on calcium permeability through the nACh receptor channel. (Table 15). The results from Examples 6a and 6b indicate that nefiracetam modulated acetylcholine-gated channel currents but not calcium-sensitive chloride (Cl^-) currents.

T1 sequence (P19490 19-907): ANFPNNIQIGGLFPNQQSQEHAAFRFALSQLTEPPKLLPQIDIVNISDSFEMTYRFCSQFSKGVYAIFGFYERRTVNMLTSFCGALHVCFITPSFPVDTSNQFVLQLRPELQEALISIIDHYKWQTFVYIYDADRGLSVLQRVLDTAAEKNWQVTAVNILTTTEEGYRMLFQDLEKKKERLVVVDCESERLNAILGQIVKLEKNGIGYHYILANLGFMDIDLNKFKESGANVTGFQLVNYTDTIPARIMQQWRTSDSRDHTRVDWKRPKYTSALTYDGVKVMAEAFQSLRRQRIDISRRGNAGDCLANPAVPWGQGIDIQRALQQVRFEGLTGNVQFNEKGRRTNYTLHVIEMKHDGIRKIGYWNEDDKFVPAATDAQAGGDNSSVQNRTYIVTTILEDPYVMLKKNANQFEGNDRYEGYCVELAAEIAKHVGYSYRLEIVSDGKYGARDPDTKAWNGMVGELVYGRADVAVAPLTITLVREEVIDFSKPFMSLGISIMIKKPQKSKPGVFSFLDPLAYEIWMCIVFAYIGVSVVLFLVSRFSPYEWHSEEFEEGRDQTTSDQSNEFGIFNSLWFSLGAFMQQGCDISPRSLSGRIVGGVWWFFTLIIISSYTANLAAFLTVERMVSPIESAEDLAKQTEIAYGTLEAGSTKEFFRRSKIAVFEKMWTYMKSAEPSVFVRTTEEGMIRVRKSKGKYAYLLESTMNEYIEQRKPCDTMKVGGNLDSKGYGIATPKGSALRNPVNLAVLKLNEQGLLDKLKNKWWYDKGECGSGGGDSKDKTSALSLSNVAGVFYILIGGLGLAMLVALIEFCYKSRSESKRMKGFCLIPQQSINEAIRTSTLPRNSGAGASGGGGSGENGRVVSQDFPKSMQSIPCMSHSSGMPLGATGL
T1 sequence (P19491 22-883): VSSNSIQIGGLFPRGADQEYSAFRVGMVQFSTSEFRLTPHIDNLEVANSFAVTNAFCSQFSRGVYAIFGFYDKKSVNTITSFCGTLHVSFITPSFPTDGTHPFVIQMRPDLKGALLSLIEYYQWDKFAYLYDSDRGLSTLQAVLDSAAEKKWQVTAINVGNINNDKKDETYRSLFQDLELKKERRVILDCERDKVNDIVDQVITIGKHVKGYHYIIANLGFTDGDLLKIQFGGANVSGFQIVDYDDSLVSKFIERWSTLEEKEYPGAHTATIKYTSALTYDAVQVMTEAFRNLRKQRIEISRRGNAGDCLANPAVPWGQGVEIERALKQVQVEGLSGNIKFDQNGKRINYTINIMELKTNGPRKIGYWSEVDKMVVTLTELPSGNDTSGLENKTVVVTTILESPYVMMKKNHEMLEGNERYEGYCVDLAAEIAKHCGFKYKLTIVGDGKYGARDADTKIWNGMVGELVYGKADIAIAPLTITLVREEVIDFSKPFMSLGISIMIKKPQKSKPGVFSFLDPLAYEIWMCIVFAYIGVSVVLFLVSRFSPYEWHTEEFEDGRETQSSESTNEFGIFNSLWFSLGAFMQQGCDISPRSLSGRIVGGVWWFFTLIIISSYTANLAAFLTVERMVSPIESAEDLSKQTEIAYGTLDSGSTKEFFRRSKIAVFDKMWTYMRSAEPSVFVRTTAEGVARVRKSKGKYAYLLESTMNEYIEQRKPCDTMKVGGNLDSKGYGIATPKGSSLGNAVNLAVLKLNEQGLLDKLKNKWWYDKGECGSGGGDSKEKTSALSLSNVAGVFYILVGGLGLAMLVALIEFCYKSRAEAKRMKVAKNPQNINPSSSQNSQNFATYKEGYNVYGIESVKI
T1 sequence (P19492 23-888): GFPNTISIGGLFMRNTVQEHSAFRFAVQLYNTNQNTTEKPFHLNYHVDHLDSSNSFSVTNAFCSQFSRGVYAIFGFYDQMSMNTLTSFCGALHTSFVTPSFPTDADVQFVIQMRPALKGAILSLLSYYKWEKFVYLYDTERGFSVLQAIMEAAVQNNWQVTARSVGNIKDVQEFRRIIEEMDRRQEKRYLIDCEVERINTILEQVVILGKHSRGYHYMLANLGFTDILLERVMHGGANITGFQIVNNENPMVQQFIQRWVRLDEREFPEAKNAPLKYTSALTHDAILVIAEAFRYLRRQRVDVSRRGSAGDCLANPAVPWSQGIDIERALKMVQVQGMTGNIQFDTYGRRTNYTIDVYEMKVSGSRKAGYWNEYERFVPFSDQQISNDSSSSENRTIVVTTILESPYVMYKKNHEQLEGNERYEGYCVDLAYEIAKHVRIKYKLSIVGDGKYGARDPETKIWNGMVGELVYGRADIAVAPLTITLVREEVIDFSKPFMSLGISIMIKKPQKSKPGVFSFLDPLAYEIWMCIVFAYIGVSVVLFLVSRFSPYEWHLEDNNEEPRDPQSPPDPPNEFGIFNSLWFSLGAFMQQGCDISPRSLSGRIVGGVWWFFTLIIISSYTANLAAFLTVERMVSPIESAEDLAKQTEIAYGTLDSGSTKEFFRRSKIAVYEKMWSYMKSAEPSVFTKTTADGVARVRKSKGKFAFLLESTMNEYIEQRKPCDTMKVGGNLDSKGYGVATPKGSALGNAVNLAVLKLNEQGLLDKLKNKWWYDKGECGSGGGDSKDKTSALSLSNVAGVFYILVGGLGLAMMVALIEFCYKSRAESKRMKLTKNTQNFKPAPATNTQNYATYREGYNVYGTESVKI

## Cc1cccc(C)c1NC(=O)CN1CCCC1=O [nefiracetam, 2-oxo-1-pyrrolidinylacetic acid 2,6-dimethylanilide]
[1]
  effect on AMPA (GluR1, 2, 3) receptor currents (Fig. 1): never potentiated
[2]
  normalized Ca^2+ rise (Δ increase of intensity / base intensity / current amplitude): 6.6 ± 1.4
